According to US10752612B2, “PLK4 inhibitors” (LUDWIG INSTITUTE FOR CANCER RESEARCH LTD, priority 2015, dated 2020):

Target: T1, human Plk4 kinase domain (aa 2-275) (Homo sapiens, UniProt O00444)
T1 construct: purified 6×His-tagged human Plk4 kinase domain (aa 2-275); 6xHis; made in house; host or cells: E. coli
T1 sequence (O00444 2-275): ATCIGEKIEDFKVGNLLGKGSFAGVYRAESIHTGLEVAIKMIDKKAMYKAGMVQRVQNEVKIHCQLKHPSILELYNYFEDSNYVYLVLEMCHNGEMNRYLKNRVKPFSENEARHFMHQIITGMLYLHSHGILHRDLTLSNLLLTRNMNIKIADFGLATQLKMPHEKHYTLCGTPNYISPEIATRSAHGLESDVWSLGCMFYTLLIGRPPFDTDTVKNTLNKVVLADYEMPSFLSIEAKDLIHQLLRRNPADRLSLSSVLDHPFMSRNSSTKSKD
Test: Plk4 kinase assay (ADP-Glo)
Assay type: biochemical
Settings: Table 1
Procedure, shortened: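 Enzyme at 2.5-10 nM final, pH 8.0, reacted 4-16 hours at 25° C; ADP generation read by ADP-Glo luminescence. Ki derived from IC50 by Cheng-Prusoff or, for tight binders, Copeland formalism.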

Row | IC50 | Compound
1 | < 1000 nM | COc1c(Nc2cc(C)[nH]n2)nc(Sc2ccc(S(=O)(=O)Cc3ccccc3)cc2)nc1N(C)C
2 | < 1000 nM | COc1c(Nc2cc(C)[nH]n2)nc(Sc2ccc(S(=O)(=O)Cc3cccc([N+](=O)[O-])c3)cc2)nc1N1CCOC[C@H]1C
3 | < 1000 nM | COc1c(Nc2cc(C)[nH]n2)nc(Sc2ccc(NC(C)=O)cc2)nc1N1CCN(CC(=O)N2CCCCC2)CC1
4 | < 1000 nM | CCS(=O)(=O)c1ccc(Sc2nc(Nc3cc(C)[nH]n3)c(OC)c(N3CCN(C)CC3)n2)cc1
5 | < 1000 nM | CCN1CCN(c2nc(Sc3ccc(NC(=O)C4CC4)cc3)nc(Nc3cc(C)[nH]n3)c2OC)CC1
6 | < 1000 nM | COc1c(Nc2cc(C)[nH]n2)nc(Sc2ccc(NC(=O)C3CC3)cc2)nc1N1CCN(C)CC1
7 | < 1000 nM | CCN(C)c1nc(Sc2ccc(NC(=O)C3CCCC3)cc2)nc(Nc2cc(C)[nH]n2)c1C
8 | < 1000 nM | COc1c(Nc2cc(C)[nH]n2)nc(Sc2ccc(S(=O)(=O)C(C)(C)c3cccc(Cl)c3F)cc2F)nc1N1CCN(CCN(C)C)CC1
9 | < 1000 nM | COCCNc1nc(Sc2ccc(NC(=O)C3CCCC3)cc2)nc(Nc2cc(C)[nH]n2)c1OC
10 | < 1000 nM | COc1c(Nc2cc(C)[nH]n2)nc(Sc2ccc(S(=O)(=O)N(C)C)cc2)nc1N1CCN(CCN(C)C)CC1
11 | < 1000 nM | COc1c(Nc2cc(C)[nH]n2)nc(Sc2ccc(S(C)(=O)=O)cc2)nc1N1CCC(CCN(C)C)CC1
12 | < 1000 nM | COc1c(Nc2cc(C)[nH]n2)nc(Sc2ccc(NC(C)=O)cc2)nc1N1C2CCC1CC(O)C2 (centres unmarked)
13 | 100 to 1000 nM | CCN(CC)c1nc(Sc2ccc(NC(=O)C3CCCC3)cc2)nc(Nc2cc(C)[nH]n2)c1C
14 | < 1000 nM | COc1c(Nc2cc(C)[nH]n2)nc(Sc2ccc(S(=O)(=O)Cc3c(F)c(F)cc(F)c3F)cc2F)nc1N1CCOCC1
15 | < 1000 nM | COc1c(Nc2cc(C)[nH]n2)nc(Sc2ccc(NC(C)=O)cc2)nc1N1CC2CCC(C1)N2CCN1CCCCCCC1
16 | < 1000 nM | COc1c(Nc2cc(C)[nH]n2)nc(Sc2ccc(S(=O)(=O)Cc3ccccc3Cl)cc2)nc1N1CCN(CCN(C)C)CC1
17 | < 1000 nM | CCN(c1nc(Sc2ccc(NC(C)=O)cc2)nc(Nc2cc(C)[nH]n2)c1C)C(C)C
18 | > 1000 nM | CCOc1c(Nc2cc(C)[nH]n2)nc(Sc2ccc(NC(=O)C3CCCC3)cc2)nc1N(CC)CC
19 | 100 to 1000 nM | CCOc1c(Nc2cc(C)[nH]n2)nc(Sc2ccc(NC(C)=O)cc2)nc1N(C)C
20 | < 1000 nM | CCS(=O)(=O)c1ccc(Sc2nc(Nc3cc(C)[nH]n3)c(OC)c(N3CCOC[C@@H]3C)n2)c(Cl)c1
21 | < 1000 nM | COc1c(Nc2cc(C)[nH]n2)nc(Sc2ccc(NC(C)=O)cc2)nc1N1CCN(CCN2CCCCC2)CC1
22 | < 1000 nM | CCN1CCN(c2nc(Sc3ccc(NC(C)=O)cc3)nc(Nc3cc(C)[nH]n3)c2OC)CC1
23 | < 1000 nM | COc1c(Nc2cc(C)[nH]n2)nc(Sc2ccc(NC(C)=O)cc2)nc1N1CCN(C(C)C)CC1
24 | < 1000 nM | Cc1cc(Nc2nc(Sc3ccc(NC(=O)C4CCCC4)cc3)nc(N3CCN(C4CCN(C)CC4)CC3)c2C)n[nH]1
25 | < 1000 nM | CC(=O)Nc1ccc(Sc2nc(Nc3cc(C)[nH]n3)c(C)c(N3CCC(F)CC3)n2)cc1
26 | < 1000 nM | COc1c(Nc2cc(C)[nH]n2)nc(Sc2ccc(S(=O)(=O)C(C)(C)c3cccc([N+](=O)[O-])c3F)cc2F)nc1N1CCC(OC)C1 (centres unmarked)

Row | IC50 | Compound
27 | < 1000 nM | CC(=O)Nc1ccc(Sc2nc(Nc3cc(C)[nH]n3)c(C)c(N3CCC(N)CC3)n2)cc1
28 | < 1000 nM | COc1c(Nc2cc(C)[nH]n2)nc(Sc2ccc(NC(C)=O)cc2)nc1N(C)C
29 | 100 to 1000 nM | COc1c(Nc2nccs2)nc(Sc2ccc(NC(C)=O)cc2)nc1N1CCN(CCN(C)C)CC1
30 | < 1000 nM | Cc1cc(Nc2cc(N3CCN(CCN(C)C)CC3)nc(Sc3ccc(S(=O)(=O)Cc4ccccc4)cc3)n2)n[nH]1
31 | < 1000 nM | COc1c(Nc2cc(C)[nH]n2)nc(Sc2ccc(NC(C)=O)cc2)nc1N1CCN(C2CCN(C)CC2)CC1
32 | > 1000 nM | COc1c(Nc2cc(CC(=O)O)[nH]n2)nc(SC)nc1N1CCN(CCN(C)C)CC1
33 | < 1000 nM | COc1c(Nc2cc(C)[nH]n2)nc(Sc2ccc(S(=O)(=O)C(C)(C)c3c(F)c(F)cc(F)c3F)cc2F)nc1N1CCC(NC(C)=O)C1 (centres unmarked)
34 | 100 to 1000 nM | CCOc1c(Nc2cc(C)[nH]n2)nc(Sc2ccc(NC(C)=O)cc2)nc1N1CCCCC1
35 | < 1000 nM | CC(=O)Nc1ccc(Sc2nc(Nc3cc(C)[nH]n3)c(C)c(N3CCC(N(C)C)CC3)n2)cc1
36 | < 1000 nM | COc1c(Nc2cc(C)[nH]n2)nc(Sc2ccc(S(=O)(=O)Cc3ccccc3)cc2)nc1N1CCN(CCN(C)c2ccccc2)CC1
37 | < 1000 nM | CSc1nc(Nc2cc(C)[nH]n2)c(C)c(N2CCOCC2)n1
38 | < 1000 nM | COc1c(Nc2cc(C)[nH]n2)nc(Sc2ccc(NC(C)=O)cc2)nc1N1CCN(C(=O)C(C)C)CC1
39 | < 1000 nM | COc1c(Nc2cc(C)[nH]n2)nc(Sc2ccc(NC(=O)C3CC3)cc2)nc1N1CCN(C(C)C)CC1
40 | < 1000 nM | COc1c(Nc2cc(C)[nH]n2)nc(Sc2ccc(S(=O)(=O)C(F)c3cccc([N+](=O)[O-])c3F)cc2F)nc1N1CCN(CCN(C)C)CC1 (centres unmarked)
41 | < 1000 nM | COc1c(Nc2cc(C)[nH]n2)nc(Sc2ccc(S(=O)(=O)Cc3cccc([N+](=O)[O-])c3)cc2F)nc1N1CCOC[C@H]1C
42 | < 1000 nM | COc1c(Nc2cc(C)[nH]n2)nc(Sc2ccc(NC(C)=O)cc2)nc1N1CCC(CCN(C)C)CC1
43 | < 1000 nM | COc1c(Nc2cc(C)[nH]n2)nc(Sc2ccc(S(=O)(=O)Cc3ccccc3)cc2)nc1N1CCN(CCN2C3CCCC2CC3)CC1
44 | < 1000 nM | CCN1CCN(c2nc(Sc3ccc(NC(C)=O)cc3)nc(Nc3cc(C)[nH]n3)c2C)CC1
45 | < 1000 nM | CC(=O)Nc1ccc(Sc2nc(Nc3cc(C)[nH]n3)c(C)c(N3C4CCC3CC(O)C4)n2)cc1 (centres unmarked)
46 | < 1000 nM | COc1c(Nc2cc(C)[nH]n2)nc(Sc2ccc(-c3cc4cccc([N+](=O)[O-])c4o3)cc2F)nc1N1CCOCC1
47 | < 1000 nM | COc1c(Nc2cc(C)[nH]n2)nc(Sc2ccc(S(=O)(=O)Cc3c(F)c(F)cc(Cl)c3F)cc2F)nc1N1CCC(CCN(C)C)CC1
48 | < 1000 nM | CCS(=O)(=O)c1ccc(Sc2nc(Nc3cc(C)[nH]n3)c(OC)c(N3CCCCC3)n2)cc1
49 | < 1000 nM | CCc1cc(Nc2nc(SC)nc(N3CCN(CCN(C)C)CC3)c2OC)n[nH]1
50 | < 1000 nM | COc1c(Nc2cc(C)[nH]n2)nc(Sc2ccc(S(=O)(=O)Cc3cccc([N+](=O)[O-])c3F)cc2F)nc1N1CCOC[C@@H]1CO
51 | < 1000 nM | COCCC(=O)N1CCN(c2nc(Sc3ccc(NC(=O)C4CC4)cc3)nc(Nc3cc(C)[nH]n3)c2OC)CC1
52 | < 1000 nM | COc1c(Nc2cc(C)[nH]n2)nc(Sc2ccc(S(=O)(=O)Cc3cccc(F)c3F)cc2F)nc1N1CCCCC1

Row | IC50 | Compound
53 | < 1000 nM | COc1c(Nc2cc(C)[nH]n2)nc(Sc2ccc(NC(C)=O)cc2)nc1NC1CCNCC1
54 | 100 to 1000 nM | CCOc1c(Nc2cc(C)[nH]n2)nc(Sc2ccc(NC(=O)C3CCCC3)cc2)nc1N(C)C
55 | < 1000 nM | COc1c(Nc2cc(C)[nH]n2)nc(Sc2ccc(S(C)(=O)=O)cc2Cl)nc1N1CCN(CCN(C)C)CC1
56 | 100 to 1000 nM | COc1c(Nc2cc(C)[nH]n2)nc(Sc2ccc(NC(=O)C3CC3)cc2)nc1NC1CCN(C)CC1
57 | < 1000 nM | COc1c(Nc2cc(C)[nH]n2)nc(Sc2ccc(NC(C)=O)cc2)nc1N1CCN(C(=N)NO)CC1
58 | < 1000 nM | CCOc1c(Nc2cc(C)[nH]n2)nc(Sc2ccc(S(=O)(=O)Cc3cc(F)ccc3F)cc2)nc1N1CCN(CCN(C)C)CC1
59 | < 1000 nM | COc1c(Nc2cc(C)[nH]n2)nc(Sc2ccc(NC(C)=O)cc2)nc1N1CC=CCC1
60 | < 1000 nM | COc1c(Nc2cc(C)[nH]n2)nc(Sc2ccc(NC(C)=O)cc2)nc1N1CCN(CCN2C3CCCC2CC3)CC1
61 | < 1000 nM | CC(=O)Nc1ccc(Sc2nc(Nc3cc(C)[nH]n3)c(C)c(N3CCC(C)CC3)n2)cc1
62 | < 1000 nM | COc1c(Nc2cc(C)[nH]n2)nc(Sc2ccc(S(=O)(=O)Cc3cccc(C(=O)O)c3)cc2)nc1N1CCN(CCN(C)C)CC1
63 | < 1000 nM | COc1c(Nc2cc(C)[nH]n2)nc(Sc2ccc(NC(C)=O)cc2)nc1N1CCN(C(C)=O)CC1
64 | 100 to 1000 nM | CCOc1c(Nc2cc(C)[nH]n2)nc(Sc2ccc(NC(=O)C3CC3)cc2)nc1N1CCN(C(=O)CCOC)CC1
65 | < 1000 nM | CC(=O)Nc1ccc(Sc2nc(Nc3cc(C)[nH]n3)c3c(n2)C2(CC3)CCN(CCN(C)C)CC2)cc1
66 | > 1000 nM | CCc1cc(Nc2nc(Sc3ccc(NC(=O)C4CC4)cc3)nc(N3CCN(C)CC3)c2C)n[nH]1
67 | < 1000 nM | COc1c(Nc2c[nH]c(C)c2)nc(Sc2ccc(NC(C)=O)cc2)nc1N1CCC(O)C1 (centres unmarked)
68 | 100 to 1000 nM | CCOc1c(Nc2cc(C)[nH]n2)nc(SC)nc1N1CCN(C)CC1
69 | < 1000 nM | COc1c(Nc2cc(C)[nH]n2)nc(Sc2ccc(NC(C)=O)cc2)nc1N1CCN(CCN2CCOCC2)CC1
70 | < 1000 nM | CNC(=O)Nc1ccc(Sc2nc(Nc3cc(C)[nH]n3)c(C)c(N3CCOCC3)n2)cc1
71 | < 1000 nM | COc1c(Nc2cc(C)[nH]n2)nc(Sc2cccc(NC(C)=O)c2)nc1N1CCOCC1
72 | > 1000 nM | COc1c(Nc2cc(C)[nH]n2)nc(Sc2ccc(NC(C)=O)cc2)nc1N1CCN(CCN(C)C)CC1C (centres unmarked)
73 | 100 to 1000 nM | COc1c(Nc2cc(C)[nH]n2)nc(Sc2ccc(NC(=O)C3CC3)cc2)nc1NC1CCNCC1
74 | 100 to 1000 nM | CCOc1c(Nc2cc(C)[nH]n2)nc(Sc2ccc(NC(C)=O)cc2)nc1N1CCN(CCN(C)C)CC1
75 | < 1000 nM | COc1c(Nc2cc(C)[nH]n2)nc(Sc2ccc(NC(C)=O)cc2)nc1N1CC2CCC(C1)N2CCN1CCN(C)CC1
76 | < 1000 nM | COc1c(Nc2cc(C)[nH]n2)nc(Sc2ccc(S(=O)(=O)Cc3ccccc3)cc2)nc1N1CCN(CCN2C(C)CCCC2C)CC1 (centres unmarked)
77 | < 1000 nM | COc1c(Nc2cc(C)[nH]n2)nc(Sc2ccc(S(=O)(=O)Cc3ccccc3)cc2F)nc1N1CCN(CCN(C)C)CC1
